This note sets out measurements from patent publication US20140011769A1, “Methods of Treating Retroviral Infections and Related Dosage Regimes” (Chimerix, Inc., priority 2012, published 2014).

The structures appear in SMILES notation. Where only a bound is given, the exact number is not on record here.

The assay relates to HTLV-I proviral DNA. Put plainly: PCR of proviral HTLV-I DNA in co-cultured PBMCs. To be noted: for relative intensity of amplified HTLV-I versus infected controls (PBMC+MT-2 cells): two and four weeks, all concentrations; for concentration giving less integration of proviral DNA by PCR: weeks 2 and 4. The class given is cell-based. How it is done: Co-Culture for HTLV-I Replication: Cell cultures were incubated at 37° C./5% CO2 for four weeks. Cell viability and density was monitored by trypan blue dye exclusion test. Cell density was readjusted to 8×10^5 cells per mL on days 3, 7, 10, 14, 21 and 28. Compound was added with the half-volume fresh medium exchange on days 3, 7, and 10. Supernatant was collected on days 14, 21 and 28 for measurement of HTLV-I virus replication by p19 Gag ELISA. Cell samples were also collected on days 14 and 28 for genomic DNA extraction and PCR analysis of HTLV-I proviral DNA. Untreated PBMCs co-cultured with MT-2 cells, PBMCs alone, and mitomycin C-treated MT-2 cells alone were cultured in parallel as controls.
(§1) PCR of Proviral HTLV-I DNA: The presence of HTLV-I proviral DNA at 2 and 4 weeks in treated and untreated PBMC cells was examined using a PCR assay. Total DNA was extracted from frozen cell pellets using Qiagen DNEasy Blood and Tissue kits according to the manufacturer's recommended method for extraction from cultured cells. DNA was eluted in 200 μl of Buffer AE and the concentration was determined by absorbance at 260 nm in a Spectramax 386 Plus plate reader. Fifty nanograms of extracted DNA was subjected to two separate PCR amplifications using primer sets for HTLV-I and human GAPDH. Amplifications were performed using PCR primer sets designed at ImQuest BioSciences and synthesized by IDT (Coraville, Id.). Amplification of HTLV-I proviral DNA was performed using 50 ng of extracted DNA in a 25 μl reaction volume with TaqPro complete (Denville Scientific, Metuchen, N.J.) and DNA oligonucleotide primers (0.2 μM each) HTLV-3281-F (5′-AACTTCAAGCCCTACTTGGCGAGA-3′[SED ID NO.: 1]) and HTLV-3666-R (5′-TGTATGGTTTGGCAGAGTAGCCCA-3′ [SED ID NO.: 2]). Amplification of human GAPDH DNA sequences was performed using 50 ng of extracted DNA in a 25 μl reaction volume with TaqPro complete and DNA oligonucleotide primers (0.2 μM each) hGAPDH-gF1 (5′-GAAGGAAATGAATGGGCAGCCGTT-3′ [SED ID NO.: 3]) and GAPDH-gR1 (5′-ATTTGCCAAGTTGCCTGTCCTTCC-3′ [SED ID NO.: 4]). Amplification conditions for both HTLV-I and GAPDH consisted of an initial denaturation step of 95° C. for 5 min followed by 40 cycles of 95° C. for 30 sec, 62° C. for 30 sec, 72° C. for 45 sec and a final extension of 72° C. for 5 min. The amplified DNA products were evaluated by agarose gel electrophoresis and ethidium bromide staining.
as §1, with “AGA-3′ [SED” for “AGA-3′[SED”, “5])” for “1])”, “6]).” for “2]).”, “7])” for “3])”, “8]). […]” for “4]). Amplification conditions for both HTLV-I and GAPDH consisted of an initial denaturation step of 95° C. for 5 min followed by 40 cycles of 95° C. for 30 sec, 62° C. for 30 sec, 72° C. for 45 sec and a final extension of 72° C. for 5 min. The amplified DNA products were evaluated by agarose gel electrophoresis and ethidium bromide staining.”

For `CCCCCCCCCCCCCCCCOCCCOP(=O)(O)CO[C@H](C)Cn1cnc2c(N)ncnc21` [HDP-TFV, 3-(hexadecyloxy)propyl hydrogen ((R)-1-(6-amino-9H-purin 9-yl)propan-2-yloxy)methylphosphonate], the “inhibition of HTLV proviral DNA accumulation” value (four weeks of treatment, lower concentrations) is on record as “apparent”.

For the compound `Cc1cn([C@H]2C[C@H](N=[N+]=[N-])[C@@H](CO)O2)c(=O)[nH]c1=O` [AZT, 3′-azido-2′,3′-dideoxythymidine], the “relative intensity of amplified HTLV-I versus infected controls (PBMC+MT-2 cells)” value was “either equal or less than” and the “concentration giving less integration of proviral DNA by PCR” value is recorded as “above 0.1 μM”.

Regarding `C[C@H](Cn1cnc2c(N)ncnc21)OCP(=O)(O)O` [Tenofovir, (R)-9-(2-phosphonylmethoxypropyl)adenine], the “relative intensity of amplified HTLV-I versus infected controls (PBMC+MT-2 cells)” value is “either equal or less than” and the “concentration giving less integration of proviral DNA by PCR” value worked out at 25 µM.

On to `CCCCCCCCCCCCCCCCOCCCOP(=O)(O)CO[C@H](CO)Cn1ccc(N)nc1=O` [HDP-CDV, hexadecyloxypropyl cidofovir], for which the “concentration inhibiting accumulation of HTLV proviral DNA” value was “all concentrations” (four weeks of treatment) and not below 0.2 µM (two weeks of treatment).

Turning to `Nc1ccn(C[C@@H](CO)OCP(=O)(O)O)c(=O)n1` [Cidofovir, (S)-9-(3-hydroxy-2-phosphonylmethoxypropyl)cytosine], the “concentration inhibiting accumulation of HTLV proviral DNA” value (two weeks of treatment) stood at 100 µM.
